# Data: US20230181496A1, “USE OF NOREPINEPHRINE OR BETA-ADRENERGIC RECEPTOR INHIBITOR IN PREPARATION OF MEDICAMENT FOR NERVE INJURY REPAIR IN DIABETES” (Qingdao Eye Hospital of Shandong First Medical University …, priority 2021, published 2023)
# “Also recorded” adds a separate entry of the source.
# Key:
# TKE2 cells = assay: Expression of neurotrophic factors NGF and GDNF in TKE2 cells (qPCR and ELISA); type: cell-based, mouse; details: 24 h
# Protocol: TKE2 cells cultured under different conditions were collected for mRNA extraction, and their culture supernatants were collected; after qPCR and ELISA, expression levels of neurotrophic factors NGF and GDNF were obtained, respectively. Herein, primers for the detection of expression of NGF and GDNF by qPCR were as follows: The reaction system was as follows: 2×SYBR: 5 μL; upstream primer: 0.3 μL; downstream primer: 0.3 μL; RNase-free water: 2.4 μL; cDNA: 2 μL; total: 10 μL; The reaction program was as follows: PCR initial denaturation: 95° C. for 2 min; two-step program: 40 cycles of 95° C. for 5 s and 60° C. for 10 s. The ELISA was conducted by ELISA Kit for mouse NGF (USCN Life Science Inc. Wuhan, China) and mouse GDNF(Abcam, ab171178, Shanghai, China).
# diabetic mice [1] = assay: Corneal sensitivity after corneal epithelium scraping (Cochet-Bonnet aesthesiometer); type: in vivo
# [2] = system: Trigeminal ganglion neurons; assay: Growth of trigeminal ganglion neurons cultured with TKE2 culture supernatants (βIII-Tubulin staining, Neuron J length); type: cell-based, mice; details: supernatant added to neurons for 24 h
# Protocol: Trigeminal ganglion neurons isolated from normal mice were mixed with a mixture of 40 U/mL papain, 3 mg/mL collagenase, and 4.7 mg/mL dispase II, digested and subjected to gradient centrifugation with percoll (upper layer: 12.5% percoll; lower layer 28% percoll), and isolated to obtain neurons (as describedin the prior art: Malin, S. A., Davis, B. M. & Molliver, D. C. Production of dissociated sensory neuron cultures and considerations for their use in studying neuronal function and plasticity. Nat Protoc 2, 152-160 (2007).). The neurons obtained were cultured on a laminin-coated glass slide overnight. TKE2 culture supernatants under different conditions were added to the neurons and cultured for 24 h; after βIII-Tubulin staining, the length of neuron was analyzed and calculated by Neuron J (after the relative length was analyzed by the software, it was calculated with the control as 1.0).
# diabetic mice [3] = assay: Expression of NGF and GDNF in corneal epithelium (mRNA detection and immunofluorescence staining); type: in vivo; details: diabetic mice dropped in eyes with β2-adrenergic receptor antagonist
# Description: mRNA was extracted from the corneal epithelia of the diabetic mice and the diabetic mice treated with β2-adrenergic receptor antagonist; meanwhile, expression levels of NGF and GDNF in epithelial cells were detected according to the example, and expression levels of NGF and GDNF in epithelia of the diabetic mice and the diabetic mice dropped in eyes with β2-adrenergic receptor antagonist were detected by immunofluorescence staining.
# diabetic mice [4] = assay: Corneal nerve regeneration (βIII-tubulin staining, confocal microscope); type: in vivo
# Description: Animals were STZ-induced type I diabetic mice (constructedas describedin the prior art: Lingling, Yang, Guohu, Di, Xia, & Qi, et al. (2014). Substance P promotes diabetic corneal epithelial wound healing through molecular mechanisms mediated via the neurokinin-1 receptor. Diabetes, 63(12), 4262-4274.) and their normal controls. Laboratory mice had no corneal defect, neovascularization, or conjunctival injury.
# Cornea of diabetic mice and their control mice were subjected to βIII-tubulin staining (as described in the following reference: Wang X, Li W, Zhou Q, et al. MANF Promotes Diabetic Corneal Epithelial Wound Healing and Nerve Regeneration by Attenuating Hyperglycemia-Induced Endoplasmic Reticulum Stress. 2020.), and nerve regeneration was observed under a confocal microscope.
# The cornea of diabetic mice and their control mice were stained with βIII-tubulin, and nerve regeneration was observed under a confocal microscope.
# diabetic mice [5] = assay: Corneal epithelial repair after 2 mm corneal epithelium scraping (sodium fluorescein staining); type: in vivo
smiles,measurement,setting,value
"Cc1ccc(OCC(O)C(C)NC(C)C)c2c1CCC2 (centres unmarked) [ICI 118,551]",reversal of downregulated expression of NGF and GDNF caused by NE,TKE2 cells; 10 μM NE + 50 μM antagonist,reverse the downregulated expression of NGF and GDNF
same,corneal sensitivity,"diabetic mice [1]; 10-100 μM eye drops, 5 μL/eye, 4 times/day, two consecutive days",significantly promote
same,corneal sensitivity,"diabetic mice [1]; Example 8: 100 mg/kg intraperitoneally, four consecutive days, scraped at 7th day",recover the sensitivity
same,reversal of nerve growth inhibition caused by elevated norepinephrine,[2]; TKE2 cells treated with 10 μM NE + 50 μM antagonist for 24 h,better reverse nerve growth inhibition
same,expression of NGF and GDNF in corneal epithelium,diabetic mice [3],significantly upregulated the expression of NGF and GDNF
same,corneal nerve regeneration,diabetic mice [4]; diabetic mice treated with β2-adrenergic receptor antagonist eye drops,promoting effect; also recorded: effectively promote corneal nerve regeneration
same,diabetic corneal epithelial repair,"diabetic mice [5]; 10-100 μM eye drops, 5 μL/eye, 4 times/day, two consecutive days, 0, 24, 36, 48 h after modeling",significantly promote the diabetic corneal epithelial repair
same,diabetic corneal epithelial repair,"diabetic mice [5]; Example 8: 100 mg/kg intraperitoneally, four consecutive days, scraped at 7th day, 0, 36, 48 h after modeling",significantly promote the diabetic corneal epithelial repair
NC[C@H](O)c1ccc(O)c(O)c1 [norepinephrine],expression of NGF and GDNF,TKE2 cells; 10 μM NE,downregulated expression of NGF and GDNF
same,nerve growth (length of neuron),[2]; TKE2 cells treated with 10 μM NE for 24 h,nerve growth inhibition
"NCCc1cc(O)c(O)cc1O [6-OHDA, 6-hydroxydopamine]",corneal nerve regeneration,"diabetic mice [4]; Example 8: 100 mg/kg intraperitoneally, four consecutive days, 100 mg/kg",promoting effect; also recorded: effectively promoted the corneal nerve regeneration
